Results taken from patent US7964221B2, “Composition and methods of use of an immunomodulator” (priority 2006, dated 2011).

Key:
[1] = test system: CD4 cells; test: 32-week three-arm trial in HIV-infected individuals: CD4 cell counts; type: in vivo, human; details: for Change in CD4 cell counts from baseline: OT analysis
From the text: (§1) All participants were antiretroviral drug naive.
(§2) Laboratory abnormalities were graded.

[2] = 32-week three-arm HIV trial: body weight; type: in vivo, human
From the text: as §1, §2

zidovudine (AZT), lamividine (3TC), and efavirenz (EFV) [AZT/3TC/EFV]
Change in CD4 cell counts from baseline ([1]; 12 weeks of treatment): +122 cells/mm^3
Change in CD4 cell counts from baseline ([1]; 20 weeks): +108 cells/mm^3
Change in CD4 cell counts from baseline ([1]; 32 weeks): +102 cells/mm^3
CD4 counts After ([1]; after therapy): 463
CD4 counts Before ([1]; before therapy (baseline)): 361
Body weight After ([2]; after therapy): 65.6
Mean values for baseline body weight ([2]; baseline, mean ± SD): 64.2 ± 8.9 kg
Body weight Before ([2]; before therapy): 64.2
Mean weight values at the end of study ([2]; end of study): 65.6 ± 7.3 kg
Average weight gain ([2]; week 32): 1.4 kg
